In ChEMBL document CHEMBL1157099, “Proline-containing cyclopeptides from the marine sponge Phakellia fusca” (J Nat Prod, 2010):
pIC50: −log10 of the molar value. Activity calls are given as the source filed them. No cut-off for these calls is given here. Residues, ends and D or L forms follow the SMILES beside them.

Key:
Bel-7402 = assay: Cytotoxicity against human Bel7402 cells after 48 hrs by MTT assay; assay type: functional, cell-based
P388 = assay: Cytotoxicity against mouse P388 cells after 48 hrs by MTT assay; assay type: functional, cell-based; details: for pIC50: P388, 48 h

CC[C@H](C)[C@@H]1NC(=O)[C@H](CC(C)C)NC(=O)[C@@H]2CCCN2C(=O)[C@H](C(C)C)NC(=O)[C@H](Cc2c[nH]c3ccccc23)NC(=O)[C@@H]2CCCN2C(=O)[C@H]([C@@H](C)CC)NC(=O)[C@@H]2CCCN2C1=O (cyclo(IPIPWVPL))
Activity (Bel-7402): inactive
Activity (P388): inactive

CC[C@H](C)[C@@H]1NC(=O)[C@H](Cc2c[nH]c3ccccc23)NC(=O)[C@@H]2CCCN2C(=O)[C@H](CC(C)C)NC(=O)[C@@H]2CCCN2C(=O)[C@H]([C@@H](C)O)NC(=O)[C@H](CC(C)C)NC(=O)[C@@H]2CCCN2C1=O [PHAKELLISTATIN 15] (cyclo(IPLTPLPW))
pIC50 (P388): 5.07

CC(C)[C@@H]1NC(=O)[C@H](C)NC(=O)[C@H](CCCNC(=N)N)NC(=O)[C@H](CO)NC(=O)[C@H](CC(=O)O)NC(=O)[C@H](Cc2ccccc2)NC(=O)[C@@H]2CCCN2C(=O)[C@H](Cc2ccc(O)cc2)NC(=O)[C@H]([C@@H](C)O)NC1=O [PHAKELLISTATIN 16] (cyclo(AVTYPFDSR))
pIC50 (Bel-7402; Bel-7402, 48 h): 4.84
pIC50 (P388): 5.27
